From the NIST ThermoML archive (doi:10.1016/j.jct.2016.09.028)
± gives the expanded uncertainty stated by the source.

Assay: xn = mol fraction of the nth substance listed
Conditions: 100 kPa, Liquid; for speed of sound: Frequency=3 MHz, Sing-around technique in a fixed-path interferometer; for mass density: Vibrating tube method

Q: What does the source list for `Nc1ccccc1` [aniline] + CCn1cc[n+](C)c1.F[B-](F)(F)F?
A: speed of sound (293.15 K, x2 = 0): 1656.8 ± 1.3 m/s; speed of sound (293.15 K, x2 = 0.1008): 1673.6 ± 1.4 m/s; speed of sound (293.15 K, x2 = 0.2035): 1684.8 ± 1.5 m/s; speed of sound (293.15 K, x2 = 0.3059): 1689.8 ± 1.6 m/s; speed of sound (293.15 K, x2 = 0.4053): 1688.9 ± 1.7 m/s; speed of sound (293.15 K, x2 = 0.5073): 1684.6 ± 1.8 m/s; speed of sound (293.15 K, x2 = 0.6013): 1673.9 ± 1.9 m/s; speed of sound (293.15 K, x2 = 0.7046): 1660.6 ± 2 m/s; speed of sound (293.15 K, x2 = 0.8067): 1648.4 ± 2.1 m/s; speed of sound (293.15 K, x2 = 0.9059): 1638.8 ± 2.2 m/s; mass density (293.15 K, x2 = 0): 1021.69 ± 1 kg/m3; mass density (293.15 K, x2 = 0.1008): 1068.09 ± 1.5 kg/m3; mass density (293.15 K, x2 = 0.2035): 1112.92 ± 1.5 kg/m3; mass density (293.15 K, x2 = 0.3059): 1153.03 ± 1.6 kg/m3; mass density (293.15 K, x2 = 0.4053): 1183.5 ± 1.6 kg/m3; mass density (293.15 K, x2 = 0.5073): 1208.33 ± 1.6 kg/m3; mass density (293.15 K, x2 = 0.6013): 1227.06 ± 1.7 kg/m3; mass density (293.15 K, x2 = 0.7046): 1244.52 ± 1.8 kg/m3; mass density (293.15 K, x2 = 0.8067): 1260.47 ± 1.9 kg/m3; mass density (293.15 K, x2 = 0.9059): 1272.26 ± 2 kg/m3; speed of sound (303.15 K, x2 = 0): 1618.3 ± 1.3 m/s; speed of sound (303.15 K, x2 = 0.1008): 1634.2 ± 1.4 m/s; speed of sound (303.15 K, x2 = 0.2035): 1650.6 ± 1.5 m/s; speed of sound (303.15 K, x2 = 0.3059): 1657.2 ± 1.6 m/s; speed of sound (303.15 K, x2 = 0.4053): 1658.9 ± 1.7 m/s; speed of sound (303.15 K, x2 = 0.5073): 1654.5 ± 1.8 m/s; speed of sound (303.15 K, x2 = 0.6013): 1646.2 ± 1.9 m/s; speed of sound (303.15 K, x2 = 0.7046): 1634.7 ± 2 m/s; speed of sound (303.15 K, x2 = 0.8067): 1623.8 ± 2.1 m/s; speed of sound (303.15 K, x2 = 0.9059): 1614.2 ± 2.2 m/s; mass density (303.15 K, x2 = 0): 1013.04 ± 1 kg/m3; mass density (303.15 K, x2 = 0.1008): 1059.52 ± 1.5 kg/m3; mass density (303.15 K, x2 = 0.2035): 1104.8 ± 1.5 kg/m3; mass density (303.15 K, x2 = 0.3059): 1144.58 ± 1.6 kg/m3; mass density (303.15 K, x2 = 0.4053): 1175.21 ± 1.6 kg/m3; mass density (303.15 K, x2 = 0.5073): 1200.1 ± 1.6 kg/m3; mass density (303.15 K, x2 = 0.6013): 1219.01 ± 1.7 kg/m3; mass density (303.15 K, x2 = 0.7046): 1236.64 ± 1.8 kg/m3; mass density (303.15 K, x2 = 0.8067): 1252.74 ± 1.9 kg/m3; mass density (303.15 K, x2 = 0.9059): 1264.62 ± 2 kg/m3; speed of sound (313.15 K, x2 = 0): 1580 ± 1.3 m/s; speed of sound (313.15 K, x2 = 0.1008): 1596.5 ± 1.4 m/s; speed of sound (313.15 K, x2 = 0.2035): 1616.2 ± 1.5 m/s; speed of sound (313.15 K, x2 = 0.3059): 1625.5 ± 1.6 m/s; speed of sound (313.15 K, x2 = 0.4053): 1628.7 ± 1.7 m/s; speed of sound (313.15 K, x2 = 0.5073): 1624.2 ± 1.8 m/s; speed of sound (313.15 K, x2 = 0.6013): 1617.6 ± 1.9 m/s; speed of sound (313.15 K, x2 = 0.7046): 1608.8 ± 2 m/s; speed of sound (313.15 K, x2 = 0.8067): 1599.4 ± 2.1 m/s; speed of sound (313.15 K, x2 = 0.9059): 1591.8 ± 2.2 m/s; mass density (313.15 K, x2 = 0): 1004.36 ± 1 kg/m3; mass density (313.15 K, x2 = 0.1008): 1050.95 ± 1.5 kg/m3; mass density (313.15 K, x2 = 0.2035): 1096.69 ± 1.5 kg/m3; mass density (313.15 K, x2 = 0.3059): 1136.13 ± 1.5 kg/m3; mass density (313.15 K, x2 = 0.4053): 1166.91 ± 1.6 kg/m3; mass density (313.15 K, x2 = 0.5073): 1191.87 ± 1.6 kg/m3; mass density (313.15 K, x2 = 0.6013): 1210.96 ± 1.7 kg/m3; mass density (313.15 K, x2 = 0.7046): 1228.76 ± 1.8 kg/m3; mass density (313.15 K, x2 = 0.8067): 1245.01 ± 1.9 kg/m3; mass density (313.15 K, x2 = 0.9059): 1256.98 ± 2 kg/m3; speed of sound (323.15 K, x2 = 0): 1541.9 ± 1.3 m/s; speed of sound (323.15 K, x2 = 0.1008): 1561.8 ± 1.4 m/s; speed of sound (323.15 K, x2 = 0.2035): 1583 ± 1.5 m/s; speed of sound (323.15 K, x2 = 0.3059): 1593 ± 1.6 m/s; speed of sound (323.15 K, x2 = 0.4053): 1596.8 ± 1.7 m/s; speed of sound (323.15 K, x2 = 0.5073): 1593.2 ± 1.8 m/s; speed of sound (323.15 K, x2 = 0.6013): 1589.3 ± 1.9 m/s; speed of sound (323.15 K, x2 = 0.7046): 1582.3 ± 2 m/s; speed of sound (323.15 K, x2 = 0.8067): 1575.4 ± 2.1 m/s; speed of sound (323.15 K, x2 = 0.9059): 1568.9 ± 2.2 m/s; mass density (323.15 K, x2 = 0): 995.66 ± 1 kg/m3; mass density (323.15 K, x2 = 0.1008): 1042.39 ± 1.4 kg/m3; mass density (323.15 K, x2 = 0.2035): 1088.57 ± 1.5 kg/m3; mass density (323.15 K, x2 = 0.3059): 1127.68 ± 1.5 kg/m3; mass density (323.15 K, x2 = 0.4053): 1158.62 ± 1.6 kg/m3; mass density (323.15 K, x2 = 0.5073): 1183.64 ± 1.6 kg/m3; mass density (323.15 K, x2 = 0.6013): 1202.91 ± 1.7 kg/m3; mass density (323.15 K, x2 = 0.7046): 1220.88 ± 1.8 kg/m3; mass density (323.15 K, x2 = 0.8067): 1237.28 ± 1.8 kg/m3; mass density (323.15 K, x2 = 0.9059): 1249.34 ± 1.9 kg/m3
